Experimental findings from patent US9011816B2, “Fibronectin targeting contrast agent” (Case Western Reserve University, priority 2011, dated 2015) are described below.

Assay [1] deals with atherosclerotic ApoE-deficient mice. Description: in vivo MR imaging in atherosclerotic ApoE-deficient mice. The settings on record: images at baseline and in fifteen minute intervals up to sixty minutes after injection, versus scrambled peptides and Magnevist. The source says: An atherosclerotic mice model was run with 12 week old Apoe knockout mice (B6.129P2 Apotem1UNC/J) and control mice (C57BL/J6) were purchased from Jackson Lab. Apoe knockout mice were fed with a high fat diet (60% fat) after arriving and were maintained for 6 months. Control mice were fed with a normal diet (6% fat).
FIG. 1 illustrates in vivo MR images acquired in atherosclerotic ApoE-deficient mice before and after injection of targeted CLTI-(DOTA-Gd)4 or CREKA-(DOTA-Gd)4 and non-targeted controls. Arrows point to atherosclerotic aorta and insets are enlargements of aorta. The images show a baseline image at zero minutes before an injection of contrast agent. The images progress to injection and in fifteen minute intervals up to sixty minutes. The images illustrate targeted peptides, scrambled peptides, and Magnevist.

Assay [2] relates to orthotopic 4T1 breast tumor. Nature of the assay: in vivo T1-weighted MR imaging of orthotopic 4T1 breast tumor in BALB/c mice. Particulars: BALB/c mice bearing orthotopic 4T1 breast tumor; 0.03 mmol-Gd/kg; T1 weighted axial 2D gradient images; versus non-targeted scrambled CLT1-(DOTA-Gd)4. The procedure:
A […] breast tumor model was also run. A 4T1 cell line was cultured using ATCC complete growth medium. Female Balb/c mice (4-6 weeks old) were purchased from Jackson Lab. The suspension of 4T1 cells in PBS was mixed with Matrigel matrix at 1:1 ratio. The mixture (2×10^6 cells, 100 μL) was surgically implanted in the mammary pad of a mouse when a mouse was approximately 8-10 weeks old.
FIG. 2 illustrates T1-weighted axial 2D gradient images of […] breast cancer tumor. Both CLT1-(DOTA-Gd)4 and non-targeted scrambled CLT1-(DOTA-Gd)4 were investigated in […] BALB/c mice bearing orthotopic 4T1 […] breast tumor. […] The images in row (A) of the targeted CLT1-(DOTA-Gd)4. Images in row (A) illustrate a time sequence of the targeted CLT1-(DOTA-Gd)4. Images in row (B) illustrate the time sequence for non-targeted CLT1-(DOTA-Gd)4.

Assay [3] concerns orthotopic human prostate tumor. Nature of the assay: in vivo MR imaging of orthotopic human prostate tumor in nu/nu nude athymic mice. The settings on record: nu/nu nude athymic mice bearing orthotopic human prostate tumor; 0.03 mmol-Gd/kg; versus non-targeted scrambled CLT1-(DOTA-Gd)4. The protocol:
In animal tumor models […] athymic nu/nu mice (4-6 weeks old), were purchased from the Animal Resource Center (ARC) of Case Western Reserve Universitey. A suspension of PC3 with GFP cells (PC3-GFP) were harvested and suspended in a sterile phosphate-buffered saline solution. The mixture (5×10^5 cells, 25 μL) was surgically inoculated into the ventral prostate through the dorsal prostate.
FIG. 3 illustrates an enhancement ratio and a signal to noise ratio of the targeted CLT1-(DOTA-Gd)4 and non-targeted scrambled CLT1-(DOTA-Gd)4. The MRI contrast agents, targeted CLT1-(DOTA-Gd)4 and non-targeted scrambled CLT1-(DOTA-Gd)4 were administer at 0.03 mmol-Gd/kg in nu/nu nude athymic mice (n=4) bearing orthotopic human prostate tumor.

Regarding “CLT1-PEG-(Lys)3-(DOTA-Gd)4 [CLT1-(DOTA-Gd)4]”, the “MR contrast enhancement (FIG. 1)” value in assay [1] was “greater and longer enhancement in tumor tissue compared to non-targeted scrambled peptides and controls”. Besides, the “MR contrast enhancement in tumor tissue (FIG. 2)” value in assay [2] is “greater and longer enhancement in tumor tissue compared to non-targeted scrambled CLT1-(DOTA-Gd)4”. Further, the “signal intensity within the tumor tissue (enhancement ratio, signal to noise ratio; FIG. 3)” value in assay [3] is listed as “greater enhancement than non-target agents”.
